Results from paper PMC3844542 (Anesthesia and analgesia, 2013).

Tests used:
[1] = biological target: T1, LFA-1 αL I domain (wild-type, low-affinity conformer) (Homo sapiens, UniProt P20701); assay: 1-aminoanthracene fluorescence displacement assay; type: binding
T1 sequence (P20701 153-332): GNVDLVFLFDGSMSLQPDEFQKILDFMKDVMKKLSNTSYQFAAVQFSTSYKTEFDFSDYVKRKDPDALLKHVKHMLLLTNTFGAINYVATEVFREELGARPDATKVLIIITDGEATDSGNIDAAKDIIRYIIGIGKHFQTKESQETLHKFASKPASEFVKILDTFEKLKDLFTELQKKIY

[2] = biological target: leukocyte function–associated antigen-1 (LFA-1) (Homo sapiens, UniProt P20701); assay: ELISA-type ICAM-1–LFA-1 binding assay with purified LFA-1; type: biochemical
leukocyte function–associated antigen-1 (LFA-1), sequence (P20701 26-1090 limits assumed): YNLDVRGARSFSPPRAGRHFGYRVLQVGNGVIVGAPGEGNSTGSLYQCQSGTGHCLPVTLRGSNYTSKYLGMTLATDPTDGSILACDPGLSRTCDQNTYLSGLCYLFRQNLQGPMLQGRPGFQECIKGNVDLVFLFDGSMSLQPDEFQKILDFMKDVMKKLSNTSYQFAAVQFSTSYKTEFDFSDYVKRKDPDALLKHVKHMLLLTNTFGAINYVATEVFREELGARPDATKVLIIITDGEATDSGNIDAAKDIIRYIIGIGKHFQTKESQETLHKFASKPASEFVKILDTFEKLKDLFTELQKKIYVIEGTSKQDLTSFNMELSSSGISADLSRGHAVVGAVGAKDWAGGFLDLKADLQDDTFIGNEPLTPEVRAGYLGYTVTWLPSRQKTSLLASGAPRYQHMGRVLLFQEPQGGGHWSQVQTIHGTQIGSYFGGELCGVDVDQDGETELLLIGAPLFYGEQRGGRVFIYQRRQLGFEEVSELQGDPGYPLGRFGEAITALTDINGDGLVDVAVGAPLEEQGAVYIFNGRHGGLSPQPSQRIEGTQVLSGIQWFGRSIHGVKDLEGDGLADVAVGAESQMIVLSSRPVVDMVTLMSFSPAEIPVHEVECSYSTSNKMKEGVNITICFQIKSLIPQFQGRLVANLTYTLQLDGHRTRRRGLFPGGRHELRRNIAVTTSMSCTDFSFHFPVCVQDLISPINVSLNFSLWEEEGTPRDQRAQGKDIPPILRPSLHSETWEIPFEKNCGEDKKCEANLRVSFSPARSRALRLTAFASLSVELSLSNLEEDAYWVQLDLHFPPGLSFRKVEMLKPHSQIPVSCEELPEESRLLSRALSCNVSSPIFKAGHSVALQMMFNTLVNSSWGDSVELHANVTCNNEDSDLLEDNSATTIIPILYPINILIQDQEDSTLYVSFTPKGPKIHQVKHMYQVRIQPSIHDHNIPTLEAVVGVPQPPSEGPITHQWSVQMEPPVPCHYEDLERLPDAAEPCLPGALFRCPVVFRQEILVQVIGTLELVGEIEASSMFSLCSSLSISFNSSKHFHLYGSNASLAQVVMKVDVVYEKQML
leukocyte function–associated antigen-1 (LFA-1), sequence (P05107 23-769 partner): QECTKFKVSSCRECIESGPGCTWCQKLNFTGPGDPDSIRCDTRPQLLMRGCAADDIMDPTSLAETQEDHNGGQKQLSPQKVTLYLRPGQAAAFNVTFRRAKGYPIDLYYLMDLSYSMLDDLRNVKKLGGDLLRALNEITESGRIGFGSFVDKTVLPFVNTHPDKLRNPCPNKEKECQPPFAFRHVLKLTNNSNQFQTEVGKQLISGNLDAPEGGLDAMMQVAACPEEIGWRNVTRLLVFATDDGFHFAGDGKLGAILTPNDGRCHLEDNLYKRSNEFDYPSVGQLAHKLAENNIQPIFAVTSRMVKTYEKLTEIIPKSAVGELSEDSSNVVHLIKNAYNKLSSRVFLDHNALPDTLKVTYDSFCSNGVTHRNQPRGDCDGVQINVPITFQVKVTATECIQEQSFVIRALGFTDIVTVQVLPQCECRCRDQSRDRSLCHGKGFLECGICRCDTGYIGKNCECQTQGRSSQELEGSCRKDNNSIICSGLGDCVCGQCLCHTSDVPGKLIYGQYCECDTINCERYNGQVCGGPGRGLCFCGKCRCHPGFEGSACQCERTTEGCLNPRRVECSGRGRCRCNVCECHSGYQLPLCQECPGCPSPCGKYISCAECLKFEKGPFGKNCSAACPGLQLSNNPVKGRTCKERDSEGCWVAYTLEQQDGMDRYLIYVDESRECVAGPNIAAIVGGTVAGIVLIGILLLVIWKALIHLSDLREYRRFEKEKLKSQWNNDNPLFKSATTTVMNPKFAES

Row | Structure (SMILES) | IC50 [1] | ELISA-type ICAM-1-LFA-1 binding assay with purified LFA-1 [2]
1 | CC(C)c1cccc(C(C)C)c1O [propofol] | 90.3 µM | 
2 | CC(C)(C)c1cccc(C(C)(C)C)c1O [DTBP, 2,6-di-tert-butylphenol] |  | Both propofol and DTBP inhibited ICAM-1–LFA-1 binding.
